Measurements from article PMC9516332 (Frontiers in Oncology, 2022).
Read-outs that look alike come from different tables or passages of the source.

How the values were obtained:
[1] = test system: AP-1060 (ETV6-NTRK3); experiment: Cell viability assay; conditions: read-out: IC50 in cell proliferation assay
[2] = test system: 134 cancer cell lines; experiment: Cell viability assay (ATPlite, 72 hours), IC50 on cancer cell line panel

CC#CC(=O)N1CCC[C@H]1c1nc(-c2ccc(C(=O)Nc3ccccn3)cc2)c2c(N)nccn12 [acalabrutinib]
IC50 [1]: > 31.6 µM | IC50 ([2]; HEC-6, read-out: IC50 in cell proliferation assay): > 31.6 µM | IC50 ([2]; Homo sapiens, 769-P, read-out: IC50 in cell proliferation assay): > 31.6 µM | IC50 ([2]; Homo sapiens, 786-0, read-out: IC50 in cell proliferation assay): > 31.6 µM | IC50 ([2]; Homo sapiens, A 172, read-out: IC50 in cell proliferation assay): > 31.6 µM | IC50 ([2]; Homo sapiens, A204, read-out: IC50 in cell proliferation assay): > 31.6 µM | IC50 ([2]; Homo sapiens, A498, read-out: IC50 in cell proliferation assay): > 31.6 µM | IC50 ([2]; Homo sapiens, A549, read-out: IC50 in cell proliferation assay): > 31.6 µM | IC50 ([2]; Homo sapiens, A704, read-out: IC50 in cell proliferation assay): > 31.6 µM | IC50 ([2]; Homo sapiens, A-375, read-out: IC50 in cell proliferation assay): > 31.6 µM | IC50 ([2]; Homo sapiens, A-427, read-out: IC50 in cell proliferation assay): > 31.6 µM | IC50 ([2]; Homo sapiens, ACHN, read-out: IC50 in cell proliferation assay): 12.6 µM | IC50 ([2]; Homo sapiens, AN3-CA, read-out: IC50 in cell proliferation assay): > 31.6 µM | IC50 ([2]; Homo sapiens, ASPC1, read-out: IC50 in cell proliferation assay): > 31.6 µM | IC50 ([2]; Homo sapiens, AU565, read-out: IC50 in cell proliferation assay): 0.685 µM | IC50 ([2]; Homo sapiens, BT-20, read-out: IC50 in cell proliferation assay): > 31.6 µM | IC50 ([2]; Homo sapiens, BT-474, read-out: IC50 in cell proliferation assay): 0.594 µM | IC50 ([2]; Homo sapiens, BT-549, read-out: IC50 in cell proliferation assay): > 31.6 µM | IC50 ([2]; Homo sapiens, BXPC-3, read-out: IC50 in cell proliferation assay): > 31.6 µM | IC50 ([2]; Homo sapiens, C-33-A, read-out: IC50 in cell proliferation assay): 2.01 µM | IC50 ([2]; Homo sapiens, CAL-27, read-out: IC50 in cell proliferation assay): > 31.6 µM | IC50 ([2]; Homo sapiens, CCF-STTG1, read-out: IC50 in cell proliferation assay): > 31.6 µM | IC50 ([2]; Homo sapiens, CCRF-CEM, read-out: IC50 in cell proliferation assay): > 31.6 µM | IC50 ([2]; Homo sapiens, COLO 205, read-out: IC50 in cell proliferation assay): > 31.6 µM | IC50 ([2]; Homo sapiens, COLO-829, read-out: IC50 in cell proliferation assay): > 31.6 µM | IC50 ([2]; Homo sapiens, DLD-1, read-out: IC50 in cell proliferation assay): > 31.6 µM | IC50 ([2]; Homo sapiens, DU-145, read-out: IC50 in cell proliferation assay): > 31.6 µM | IC50 ([2]; Homo sapiens, DU-4475, read-out: IC50 in cell proliferation assay): > 31.6 µM | IC50 ([2]; Homo sapiens, Daoy, read-out: IC50 in cell proliferation assay): > 31.6 µM | IC50 ([2]; Homo sapiens, DoTc2-4510, read-out: IC50 in cell proliferation assay): 9.83 µM | IC50 ([2]; Homo sapiens, EOL1, read-out: IC50 in cell proliferation assay): 25.8 µM | IC50 ([2]; Homo sapiens, FaDu, read-out: IC50 in cell proliferation assay): 28.5 µM | IC50 ([2]; Homo sapiens, G-361, read-out: IC50 in cell proliferation assay): > 31.6 µM | IC50 ([2]; Homo sapiens, HCC827, read-out: IC50 in cell proliferation assay): > 31.6 µM | IC50 ([2]; Homo sapiens, HCC4006, read-out: IC50 in cell proliferation assay): 17.4 µM | IC50 ([2]; Homo sapiens, HCT-15, read-out: IC50 in cell proliferation assay): > 31.6 µM | IC50 ([2]; Homo sapiens, HCT-116, read-out: IC50 in cell proliferation assay): > 31.6 µM | IC50 ([2]; Homo sapiens, HEC-1, read-out: IC50 in cell proliferation assay): > 31.6 µM | IC50 ([2]; Homo sapiens, HEC-1B, read-out: IC50 in cell proliferation assay): > 31.6 µM | IC50 ([2]; Homo sapiens, HL-60, read-out: IC50 in cell proliferation assay): > 31.6 µM | IC50 ([2]; Homo sapiens, HT, read-out: IC50 in cell proliferation assay): > 31.6 µM | IC50 ([2]; Homo sapiens, HT-1080, read-out: IC50 in cell proliferation assay): > 31.6 µM | IC50 ([2]; Homo sapiens, Hs746T, read-out: IC50 in cell proliferation assay): 9.68 µM | IC50 ([2]; Homo sapiens, Hs-578T, read-out: IC50 in cell proliferation assay): > 31.6 µM | IC50 ([2]; Homo sapiens, HuTu80, read-out: IC50 in cell proliferation assay): > 31.6 µM | IC50 ([2]; Homo sapiens, J82, read-out: IC50 in cell proliferation assay): > 31.6 µM | IC50 ([2]; Homo sapiens, Jurkat E6.1, read-out: IC50 in cell proliferation assay): 29.6 µM | IC50 ([2]; Homo sapiens, K562, read-out: IC50 in cell proliferation assay): > 31.6 µM | IC50 ([2]; Homo sapiens, KATO III, read-out: IC50 in cell proliferation assay): 31.3 µM | IC50 ([2]; Homo sapiens, KG-1, read-out: IC50 in cell proliferation assay): > 31.6 µM | IC50 ([2]; Homo sapiens, KLE, read-out: IC50 in cell proliferation assay): > 31.6 µM | IC50 ([2]; Homo sapiens, KMS-11, read-out: IC50 in cell proliferation assay): > 31.6 µM | IC50 ([2]; Homo sapiens, KU812, read-out: IC50 in cell proliferation assay): > 31.6 µM | IC50 ([2]; Homo sapiens, Kasumi 1, read-out: IC50 in cell proliferation assay): > 31.6 µM | IC50 ([2]; Homo sapiens, LC-2-ad, read-out: IC50 in cell proliferation assay): 19.6 µM | IC50 ([2]; Homo sapiens, LNCaP-Clone-FGC, read-out: IC50 in cell proliferation assay): > 31.6 µM | IC50 ([2]; Homo sapiens, LS174T, read-out: IC50 in cell proliferation assay): > 31.6 µM | IC50 ([2]; Homo sapiens, LS-411N, read-out: IC50 in cell proliferation assay): > 31.6 µM | IC50 ([2]; Homo sapiens, LoVo, read-out: IC50 in cell proliferation assay): > 31.6 µM | IC50 ([2]; Homo sapiens, MCF7, read-out: IC50 in cell proliferation assay): > 31.6 µM | IC50 ([2]; Homo sapiens, MDA-MB-231, read-out: IC50 in cell proliferation assay): > 31.6 µM | IC50 ([2]; Homo sapiens, MDA-MB-453, read-out: IC50 in cell proliferation assay): > 31.6 µM | IC50 ([2]; Homo sapiens, MDA-MB-468, read-out: IC50 in cell proliferation assay): > 31.6 µM | IC50 ([2]; Homo sapiens, MG-63, read-out: IC50 in cell proliferation assay): > 31.6 µM | IC50 ([2]; Homo sapiens, MIA PaCa-2, read-out: IC50 in cell proliferation assay): > 31.6 µM | IC50 ([2]; Homo sapiens, MKN-45, read-out: IC50 in cell proliferation assay): > 31.6 µM | IC50 ([2]; Homo sapiens, MOLM-13, read-out: IC50 in cell proliferation assay): 9.38 µM | IC50 ([2]; Homo sapiens, MOLT-4, read-out: IC50 in cell proliferation assay): > 31.6 µM | IC50 ([2]; Homo sapiens, MV4-11, read-out: IC50 in cell proliferation assay): > 31.6 µM | IC50 ([2]; Homo sapiens, MeWo, read-out: IC50 in cell proliferation assay): > 31.6 µM | IC50 ([2]; Homo sapiens, NCCIT, read-out: IC50 in cell proliferation assay): > 31.6 µM | IC50 ([2]; Homo sapiens, NCI-H82, read-out: IC50 in cell proliferation assay): > 31.6 µM | IC50 ([2]; Homo sapiens, NCI-H460, read-out: IC50 in cell proliferation assay): > 31.6 µM | IC50 ([2]; Homo sapiens, NCI-H661, read-out: IC50 in cell proliferation assay): 11 µM | IC50 ([2]; Homo sapiens, NCI-H716, read-out: IC50 in cell proliferation assay): > 31.6 µM | IC50 ([2]; Homo sapiens, NCI-H1650, read-out: IC50 in cell proliferation assay): > 31.6 µM | IC50 ([2]; Homo sapiens, NCI-H1975, read-out: IC50 in cell proliferation assay): > 31.6 µM | IC50 ([2]; Homo sapiens, NCI-H2228, read-out: IC50 in cell proliferation assay): > 31.6 µM | IC50 ([2]; Homo sapiens, OVCAR-3, read-out: IC50 in cell proliferation assay): > 31.6 µM | IC50 ([2]; Homo sapiens, PFSK-1, read-out: IC50 in cell proliferation assay): > 31.6 µM | IC50 ([2]; Homo sapiens, RL95-2, read-out: IC50 in cell proliferation assay): > 31.6 µM | IC50 ([2]; Homo sapiens, RPMI-7951, read-out: IC50 in cell proliferation assay): > 31.6 µM | IC50 ([2]; Homo sapiens, RS4-11, read-out: IC50 in cell proliferation assay): > 31.6 µM | IC50 ([2]; Homo sapiens, Rec1, read-out: IC50 in cell proliferation assay): 0.021 µM | IC50 ([2]; Homo sapiens, SHP77, read-out: IC50 in cell proliferation assay): > 31.6 µM | IC50 ([2]; Homo sapiens, SK-BR-3, read-out: IC50 in cell proliferation assay): 0.409 µM | IC50 ([2]; Homo sapiens, SK-N-AS, read-out: IC50 in cell proliferation assay): > 31.6 µM | IC50 ([2]; Homo sapiens, SK-N-FI, read-out: IC50 in cell proliferation assay): > 31.6 µM | IC50 ([2]; Homo sapiens, SK-N-MC, read-out: IC50 in cell proliferation assay): > 31.6 µM | IC50 ([2]; Homo sapiens, SK-N-SH, read-out: IC50 in cell proliferation assay): 9.87 µM | IC50 ([2]; Homo sapiens, SNU-5, read-out: IC50 in cell proliferation assay): > 31.6 µM | IC50 ([2]; Homo sapiens, SNU-16, read-out: IC50 in cell proliferation assay): > 31.6 µM | IC50 ([2]; Homo sapiens, SNU-C2B, read-out: IC50 in cell proliferation assay): > 31.6 µM | IC50 ([2]; Homo sapiens, SU-DHL-1, read-out: IC50 in cell proliferation assay): > 31.6 µM | IC50 ([2]; Homo sapiens, SU-DHL-6, read-out: IC50 in cell proliferation assay): 0.003 µM | IC50 ([2]; Homo sapiens, SUP-T1, read-out: IC50 in cell proliferation assay): > 31.6 µM | IC50 ([2]; Homo sapiens, SW48, read-out: IC50 in cell proliferation assay): 4.43 µM | IC50 ([2]; Homo sapiens, SW480, read-out: IC50 in cell proliferation assay): > 31.6 µM | IC50 ([2]; Homo sapiens, SW626, read-out: IC50 in cell proliferation assay): > 31.6 µM | IC50 ([2]; Homo sapiens, SW780, read-out: IC50 in cell proliferation assay): > 31.6 µM | IC50 ([2]; Homo sapiens, SW837, read-out: IC50 in cell proliferation assay): > 31.6 µM | IC50 ([2]; Homo sapiens, SW872, read-out: IC50 in cell proliferation assay): > 31.6 µM | IC50 ([2]; Homo sapiens, SW900, read-out: IC50 in cell proliferation assay): > 31.6 µM | IC50 ([2]; Homo sapiens, SW948, read-out: IC50 in cell proliferation assay): > 31.6 µM | IC50 ([2]; Homo sapiens, SW982, read-out: IC50 in cell proliferation assay): > 31.6 µM | IC50 ([2]; Homo sapiens, SW-620, read-out: IC50 in cell proliferation assay): > 31.6 µM | IC50 ([2]; Homo sapiens, T98G, read-out: IC50 in cell proliferation assay): > 31.6 µM | IC50 ([2]; Homo sapiens, TCC-SUP, read-out: IC50 in cell proliferation assay): > 31.6 µM | IC50 ([2]; Homo sapiens, THP-1, read-out: IC50 in cell proliferation assay): > 31.6 µM | IC50 ([2]; Homo sapiens, U2OS, read-out: IC50 in cell proliferation assay): > 31.6 µM | IC50 ([2]; Homo sapiens, U-87 MG, read-out: IC50 in cell proliferation assay): > 31.6 µM | IC50 ([2]; Homo sapiens, U-118-MG, read-out: IC50 in cell proliferation assay): > 31.6 µM | IC50 ([2]; Homo sapiens, UMUC3, read-out: IC50 in cell proliferation assay): > 31.6 µM | IC50 ([2]; Hs766T, read-out: IC50 in cell proliferation assay): > 31.6 µM | IC50 ([2]; L-82, read-out: IC50 in cell proliferation assay): > 31.6 µM | IC50 ([2]; Rh30, read-out: IC50 in cell proliferation assay): > 31.6 µM
